Molecules are shown by their SMILES.

In one experiment the test system is Frs2β (+/+) CAFs. In words: Migration (mobilization) of CAFs in co-culture. It counts as cell-based, mouse. The settings on record: single inhibitor alone, 100 μg/ml; data not shown. The method, then:
FIG. 4A-I CXCL12 produced from precancerous Frs2β (+/+) mammary cells induce tumor spheres and migration of CAFs. (A) Schematic of co-culture of Frs2β (+/+) tumor cells to form spheres in the lower chamber with Frs2β (+/+) precancerous mammary epithelial cells in the upper chamber. (B) Representative images of tumor sphere formation in the presence of Frs2β (+/+) mammary epithelial cells treated with control IgG (400 nM) or IGF1 neutralizing antibody (Nab) (400 nM). N.T., not treated (without co-culture with mammary epithelial cells). Scale bar: 100 ∝μ. (C) Quantification of tumor sphere-forming efficiency. Results are shown as means±SEM. n=4. ***p<0.001, **p<0.01. (D) Schematic of co-culture of Frs2β (+/+) or Frs2β (−/−) mammary cells in the lower chamber with Frs2β (+/+) or Frs2β (−/−) CAFs in the upper chamber. (E) Expression levels of Cxcl12 was compared between Frs2β (+/+) or Frs2β (−/−) mammary cells on the […] by qPCR. Results were shown as mean±SEM. n=6. * * *p<0.001. (F) Representative images of migrated Frs2β (+/+) CAFs co-cultured with Frs2β (+/+) or Frs2β (−/−) mammary cells in the […] for 24 hours. (G) Quantification of migrated Frs2β (+/+) CAFs. Results were shown as mean±SEM. n=4. **p<0.01. […] (I) Quantification of the migrated CAFs co-cultured with Frs2β (+/+) cancer cells for 24 hr. […]

The subject of experiment [1] is Frs2β (+/+) precancerous mammary epithelial cells. In words: qPCR of NFkB target gene expression in cultured precancerous mammary epithelial cells. It counts as cell-based, mouse. The settings on record: in vitro, dose-dependent. The source says:
(§1) FIG. 5A-K FRS2β-dependent increase in activation of AKT-NFκB increases the production of IGF1 and CXCL12, promoting tumorigenesis. (A) Schematic of DHMEQ treatment of cultured Frs2β (+/+) precancerous mammary epithelial cells in vitro. (B) Expression levels of Igf1, Cxcl12, and IκBα in Frs2β (+/+) precancerous mammary epithelial cells treated with the indicated concentration of DHMEQ were compared by qPCR. Results are shown as means±SEM. n=4. **p<0.01. (C) Immunoblotting analysis of the indicated proteins in the lysate of Frs2β (+/+) or Frs2β (−/−) precancerous mammary tissues. Actin was used as a loading control. (D) Immunoblotting analysis of cytoplasmic and nuclear expression levels of the indicated proteins (control as a nuclear protein) in the lysate of Frs2β (+/+) or Frs2β (−/−) mammary tissues. PARP1 was used as a representative protein in nucleus. Actin was used as a loading control. (E) Immunoblotting analysis of the indicated proteins in the lysate of Frs2β (+/+) or Frs2β (−/−) mammary tissues. Actin was used as a loading control. (F) Schematic of DHMEQ treatment of Frs2β (+/+) mice in vivo. The mice were intraperitoneally injected with 10 μg/g DHMEQ once a day for 3 weeks. (G) Immunohistochemical staining for Frs2β (+/+) mammary tissues with or without 3-week treatment with 10 μg/g DHMEQ, or Frs2β (−/−) mammary tissues, using antibodies against RelA. Scale bar: 50 ∝μ. (H) Expression levels of Igf1 and Cxcl12 in Frs2β (+/+) mammary tissues, with or without 3-week treatment with 10 μg/g DHMEQ. N.T., not treated. Results are shown as means±SEM. n=4. ***p<0.001 and **p<0.01 (I) Treatment of mice with a CXCR7 inhibitor and/or an IGF1 antibody reduces tumor volume. Frs2β (+/+) tumor sphere cells were inoculated into mammary fat pads of 8-week-old virgin female MMTV-neu (+)/Frs2β (+/+) mice. After 7 days, the mice were intraperitoneally injected with 0.1 μg/g IGF1 antibody (R&D Biosystems) once per week and/or 1 μg/g of AMD3100 (Sigma) one a day and 1.5 μg/g of Compound 1 once a day. […] Tumor volumes (J) and weights (K) were measured in mice treated as in (I). […]

A further experiment relates to Frs2β (+/+) mice. Kind of experiment: DHMEQ treatment in vivo: RelA localization and cytokine transcripts in precancerous mammary tissues. Also noted: species or system mouse. The following applies: 10 μg/g intraperitoneally once a day for 3 weeks.
Source text: as §1

For the molecule `c1cc(CN2CCCNCCNCCCNCC2)ccc1CN1CCCNCCNCCCNCC1` [AMD3100], in the experiment with Frs2β (+/+) CAFs, the “mobilization of CAFs” value is “did not observe significant effects”.

As for `CC(C)c1cc(N2CCCN(Cc3csc(-c4ccccc4)n3)CC2)c2ncccc2c1` [Compound 1], the “mobilization of CAFs” value in the experiment on Frs2β (+/+) CAFs is listed as “did not observe significant effects”.

As to `O=C(NC1=CC(=O)[C@H]2O[C@H]2[C@H]1O)c1ccccc1O` [DHMEQ], in experiment [1], the “expression of Cxcl12” value is “inhibited”, the “expression of Igf1” value is reported as “inhibited” and the “expression of IkBa” value was “inhibited”. In addition, in the experiment with Frs2β (+/+) mice, the “expression of Cxcl12 transcripts in precancerous mammary tissues” value was “inhibited” and the “expression of Igf1 transcripts in precancerous mammary tissues” value is reported as “inhibited”. For the same molecule, the “number of Frs2β (+/+) precancerous luminal cells harboring RelA in the nucleus” value in the experiment on Frs2β (+/+) mice (immunohistochemistry) is reported as “dramatically decreased”.
